Measurements taken from ChEMBL document CHEMBL1155586, “Streptazones A, B(1), B(2), C, and D: new piperidine alkaloids from streptomycetes” (2000).
The source made the active and inactive calls. The rule behind the calls is not given here.

Legend:
HMO2 = assay: Cytotoxicity against human HMO2 cells at 50 umol/L; type: functional, cell-based
Kato3 = assay: Cytotoxicity against human Kato3 cells at 50 umol/L; type: functional, cell-based
MCF7 [1] = assay: Cytotoxicity against human MCF7 cells at 50 umol/L; type: functional, cell-based
[2] = Cytotoxicity against human HMO2 cells; type: functional
[3] = Cytotoxicity against human Kato3 cells; type: functional
HepG2 = assay: Cytotoxicity against human HepG2 cells; type: functional
MCF7 [4] = assay: Cytotoxicity against human MCF7 cells; type: functional

C/C=C1\C(=O)C=C2NCCC=C21
Activity (HMO2): inactive | Activity (Kato3): inactive | Activity (MCF7 [1]): inactive

C/C=C/C=C/C1=CC(=O)CCN1
Activity (HMO2): inactive | Activity (Kato3): inactive | Activity (MCF7 [1]): inactive

C/C=C1\C=CC2=C1C(=O)CCN2
Activity (HMO2): inactive | Activity (Kato3): inactive | Activity (MCF7 [1]): inactive

C/C=C1\C(=O)C=C2NCCC3OC213 (stereo not given) [STREPTAZONE A]
GI50 [2]: 500 nM | TGI [2]: 50000 nM | GI50 [3]: 600 nM | TGI [3]: 1000 nM | GI50 (HepG2): < 100 nM | TGI (HepG2): 2500 nM | GI50 (MCF7 [4]): 15000 nM | TGI (MCF7 [4]): 50000 nM

C/C=C1/C2=CCCN3C(=O)O[C@H]([C@H]1O)[C@H]23
Activity (HMO2): inactive | Activity (Kato3): inactive | Activity (MCF7 [1]): inactive
